From patent US9714249B2 (Novartis AG, priority 2013, dated 2017) come the findings set out here.

The subject of one experiment is K-562 cells. Kind of experiment: Cell growth inhibition assay (CellTiter-Glo), K-562. Conditions: K-562, 4 days; for GI50: Homo sapiens, K562, 96 h, half-maximal growth inhibition; for K-562 TGI: total growth inhibition. The experiment is classed as cell-based, human. As for the experimental part: (§1) The human leukemia cell lines MV-4-11, THP-1 and K-562 were employed to characterize the effect of BET inhibitors on cellular proliferation and viability. Cells were obtained from the American Type Culture Collection (ATCC) and cultured at 37° C. in a humidified 5% CO2 incubator in the following media: MV-4-11: DMEM high glucose (Animed #1-26F01-I), 10% FCS (Animed #2-01F26-I), 4 mM L-Glutamine (Animed #5-10K50), 1 mM Sodium Pyruvate (Animed # G03625P), 1× Penicillin-Streptomycin (Animed # F12478P); K-562: Iscove's MEM (Animed #1-28F16-I), 10% FCS (Animed #2-01F26-I), 4 mM L-Glutamine (Animed #5-10K50), 1× Penicillin-Streptomycin (Animed # F12478P); THP-1: RPMI-1640 (Animed #1-41F01-I), 10% FCS (Animed #2-01F26-I), 2 mM L-Glutamine (Animed #5-10K50), 10 mM HEPES (Animed #5-31F100), 1 mM Sodium Pyruvate (Animed # G03625P), 1× Penicillin-Streptomycin (Animed # F12478P). The AML lines MV-4-11 and THP-1 are very sensitive to BET inhibitors and show massive cell death upon BET inhibition (Zuber et al., Nature, 478 (2011), 524-8). Compound-mediated suppression of cell proliferation/viability was assessed by quantification of cellular ATP levels using the CellTiter-Glo (CTG) reagent (Promega). Briefly, cells were seeded in 20 μl fresh medium into 384-well plates, followed by addition of 5 μl medium containing compound dilutions at 5-fold their final intended concentration. Dose-response effects were assessed by 3-fold serial dilutions of the test compound, starting at 10 μM. Following incubation of the cells for 4 days at 37° C. and 5% CO2, the effect of inhibitors on cell viability was quantified following addition of 20 μl CTG and luminescence quantification (integration time: 100 ms) as per vendor manual, using a correspondingly equipped Tecan M200 multi-mode platereader (TECAN, Switzerland). For data analysis, the assay background value determined in wells containing medium, but no cells, was subtracted from all data points. To enable differentiation of cytotoxic from cytostatic compounds, the number of viable cells is assessed relative to that observed at the time of compound addition using a separate cell plate (day 0). The effect of a particular test compound concentration on cell proliferation/viability is expressed as percentage of the background- and day 0-corrected luminescence reading obtained for cells treated with vehicle only (DMSO, 0.1% final concentration), which is set as 100%, whereas that luminescence reading for wells containing medium is set as −100%. Compound concentrations leading to half-maximal (1050) and total growth inhibition (TGI) were determined using standard four parameter curve fitting.
On the technique in general: Cellular ATP, detected with luciferase, serves as a proxy for viable cell number.

A further experiment deals with BRD3 (His-Brd3(20-477)) (Homo sapiens (Human), UniProt Q15059). Kind of experiment: TR-FRET in-vitro binding assay for BRD3. Conditions: acetyl-histone H4 peptide. As for the experimental part:
(§2) All assays were performed in 384 well microtiter plates. Each assay plate contained 8-point serial dilutions for 40 test compounds, plus 16 high- and 16 low controls. Liquid handling and incubation steps were done on an Innovadyne Nanodrop Express equipped with a robotic arm (Thermo CatX, Perkin Elmer/Caliper Twister II) and an incubator (Liconic STX40, Thermo Cytomat 2C450). The assay plates were prepared by addition of 50 nl per well of compound solution in 90% DMSO HummingBird nanodispenser (Zinsser Analytic). The assay was started by stepwise addition of 4.5 μl per well of bromo domain protein (50 mM HEPES, pH 7.5, 0.005% Tween20, 0.1% BSA, 50 mM NaCl, 45 nM His-Brd2(60-472) or 45 nM His-Brd3(20-477) or 45 nM His-Brd4(44-477) all proteins produced in-house) and 4.5 μl per well of peptide solution (50 mM HEPES, pH 7.5, 0.005% Tween20, 0.1% BSA, 50 mM NaCl, 60 nM acetyl-histone H4 (AcK 5, 8, 12, 16) (Biosyntan GmbH)). Reactions were incubated at 30° C. for 35 minutes. Subsequently 4.5 μl per well detection mix (50 mM HEPES, pH 7.5, 0.005% Tween20, 0.1% BSA, 50 mM NaCl, 3 nM Eu-labeled anti-His6 antibody, 21 nM streptavidin-allophycocyanin) were added. After 35 minutes incubation at 30° C., plates were measured in a Perkin Elmer EnVision multilabel reader. Concentrations causing 50% inhibition (1050) values were determined from percent inhibition values at different compound concentrations by non-linear regression analysis.
(§3) Test compounds were dissolved in DMSO (10 mM) and transferred into 1.4 mL flat bottom or V-shaped Matrix tubes carrying a unique 2D matrix. The stock solutions were stored at […] if not used immediately. For the test procedure the vials were defrosted and identified by a scanner whereby a working sheet was generated that guided the subsequent working steps. Compound dilutions were made in 96 well plates. This format enabled the assay of maximally 40 individual test compounds at 8 concentrations (single points) including 4 reference compounds, if desired (known BET inhibitors from the prior art, for this and other assays of the type disclosed herein). The dilution protocol included the production of “pre-dilution plates”, “master plates” and “assay plates”.
(§4) Pre-dilution plates: 96 polypropylene well plates were used as pre-dilution plates. A total of 4 pre-dilution plates were prepared including 10 test compounds each on the plate positions A1-A10, one standard compound at A11 and one DMSO control at A12. All dilution steps were done on a HamiltonSTAR robot. Master plates: 30 μL of individual compound dilutions including standard compound and controls of the 4 “pre-dilution plates” were transferred into a 384 “master plate” including the following concentrations 10000, 3003, 1000, 300, 100, 30, 10 and 3 μM, respectively in 90% of DMSO. Assay plates: Identical “assay plates” were then prepared by pipetting 50 nL each of compound dilutions of the “master plates” into 384-well “assay plates” by means of a HummingBird 384-channel dispenser. These plates were used directly for the assay which was performed in a total volume of 13.55 μL. This led to a final compound concentration of 37, 11, 3.7, 1.1, 0.37, 0.11, 0.037 and 0.011 μM and a final DMSO concentration of 0.37% in the assay. Cell Growth Inhibition Assay
(In general: TR-FRET usually uses a lanthanide donor and a delayed reading to cut background.)

Another experiment deals with THP-1 cells. Kind of experiment: Cell growth inhibition assay (CellTiter-Glo), THP-1. The note with it: THP-1, 4 days; for GI50: Homo sapiens, 96 h, half-maximal growth inhibition; for THP-1 TGI: total growth inhibition. Format: cell-based, human. As for the experimental part: as §1
In another experiment the test system is MV-4-11 cells. Kind of experiment: Cell growth inhibition assay (CellTiter-Glo), MV-4-11. The experiment is classed as cell-based, human. The note with it: MV-4-11, 4 days; for GI50: Homo sapiens, MV4-11, 96 h, half-maximal growth inhibition; for MV-4-11 TGI: total growth inhibition. The protocol:
as §1

The target of experiment [1] is CREBBP bromodomain (His-CREBBP (1081-1197)) (Homo sapiens (Human), UniProt Q92793). Kind of experiment: AlphaScreen in-vitro binding assay for CREBBP. The note with it: acetyl-histone H4 peptide. The protocol:
In order to assess bromodomain selectivity, we set up a binding assay using the bromodomain encoded by the CREBBP gene. […] Reactions were incubated at 30° C. for 35 minutes. Subsequently 4.5 μl per well detection mix (50 mM HEPES, pH 7.5, 0.005% Tween20, 0.02% BSA, 150 mM NaCl, 45 μg/ml Ni-chelate acceptor beads, 45 μg/ml streptavidin-donor beads) (Perkin Elmer)) were added. After 60 minutes incubation at room temperature, plates were measured in a Perkin Elmer EnVision multilabel reader. IC50 values were determined from percent inhibition values at different compound concentrations by non-linear regression analysis.
as §3
Pre-dilution plates: 96 polypropylene well plates were used as pre-dilution plates. A total of 4 pre-dilution plates were prepared including 10 test compounds each on the plate positions A1-A10, one standard compound at A11 and one DMSO control at A12. All dilution steps were done on a HamiltonSTAR robot. […] These plates were used directly for the assay which was performed in a total volume of 13.55 μL. […] Cell Growth Inhibition Assay
On the technique in general: In Alpha technology, singlet oxygen from a donor bead excites a nearby acceptor bead.

Another experiment deals with BRD4-NUT-fusion (Homo sapiens (Human), UniProt O60885+Q86Y26). Kind of experiment: Nut-foci formation assay (HCS) in HCC2494 NUT midline carcinoma cells. Conditions: 24 hours, nuclear BRD4-NUT foci, immunofluorescence. The experiment is classed as cell-based. The protocol:
Compound-mediated inhibition of BRD4 activity was monitored by quantification of the number and intensity of nuclear BRD4-NUT foci using automated immunofluorescence microscopy. Briefly, 5000 cells in 20 μl fresh medium were seeded into Poly-D-Lysine-precoated 384-well plates and incubated overnight at 37° C. and 5% CO2, followed by addition of 5 μl medium containing compound dilutions at 5-fold their final intended concentration. Dose-response effects were assessed by 3-fold serial dilutions of the test compound, starting at 10 μM. […] Assay plates were imaged using the appropriate filter sets on the Cellomics VTi automated fluorescence microscopy platform (ThermoFisher Scientific) and the population average of the number of NUT-foci per nucleus is quantified using the Cellomics Spot Detection BioApplication image analysis algorithm (ThermoFisher Scientific). The effect of a particular test compound concentration on NUT-foci number and intensity is expressed as percentage of the value obtained for cells treated with vehicle only (DMSO, 0.1% final concentration), which was set as 100.

The target in another experiment is BRD2 (His-Brd2(60-472)) (Homo sapiens (Human), UniProt P25440). Kind of experiment: TR-FRET in-vitro binding assay for BRD2. The note with it: acetyl-histone H4 peptide. As for the experimental part:
as §2, §3, §4

pIC50: −log10 of the molar value. A value given as a limit tells only on which side of the number the result lay.

In general, GI50 refers to the concentration giving 50% growth inhibition. A low value points to more potent growth inhibition. Usually pIC50 stands for the IC50 on a negative log10 scale, so that one unit is a factor of ten. Lower therefore signals a high IC50.

Sequence of CREBBP bromodomain (His-CREBBP (1081-1197)) (Q92793 1081-1197): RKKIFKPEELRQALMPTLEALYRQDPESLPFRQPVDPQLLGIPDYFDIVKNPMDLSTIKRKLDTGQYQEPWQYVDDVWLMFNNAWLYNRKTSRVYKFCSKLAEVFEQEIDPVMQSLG
Sequence of BRD3 (His-Brd3(20-477)) (Q15059 20-477, species assumed): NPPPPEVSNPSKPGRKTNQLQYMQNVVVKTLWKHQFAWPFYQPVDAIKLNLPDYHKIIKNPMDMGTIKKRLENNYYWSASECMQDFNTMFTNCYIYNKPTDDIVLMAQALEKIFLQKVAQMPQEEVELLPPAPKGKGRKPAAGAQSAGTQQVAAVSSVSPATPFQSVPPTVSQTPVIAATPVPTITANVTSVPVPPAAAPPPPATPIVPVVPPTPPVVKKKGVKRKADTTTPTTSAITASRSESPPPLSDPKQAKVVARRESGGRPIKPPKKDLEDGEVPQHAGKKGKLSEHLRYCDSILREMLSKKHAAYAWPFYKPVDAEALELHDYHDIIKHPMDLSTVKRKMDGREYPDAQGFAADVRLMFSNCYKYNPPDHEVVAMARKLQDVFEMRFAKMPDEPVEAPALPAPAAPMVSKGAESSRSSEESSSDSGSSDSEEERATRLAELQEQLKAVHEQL
Sequence of BRD2 (His-Brd2(60-472)) (P25440 60-472, species assumed): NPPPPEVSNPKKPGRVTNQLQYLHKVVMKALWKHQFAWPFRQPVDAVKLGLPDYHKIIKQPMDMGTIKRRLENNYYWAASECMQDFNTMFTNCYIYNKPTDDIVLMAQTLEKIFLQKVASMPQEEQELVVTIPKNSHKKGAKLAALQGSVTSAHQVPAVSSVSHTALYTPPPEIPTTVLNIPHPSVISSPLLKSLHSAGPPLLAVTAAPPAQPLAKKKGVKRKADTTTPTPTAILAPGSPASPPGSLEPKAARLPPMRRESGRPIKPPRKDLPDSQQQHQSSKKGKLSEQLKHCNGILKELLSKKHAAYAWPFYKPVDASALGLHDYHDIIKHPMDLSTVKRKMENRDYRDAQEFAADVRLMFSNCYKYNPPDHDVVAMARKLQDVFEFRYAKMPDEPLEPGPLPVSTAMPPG

Regarding `Cc1[nH]nc2c1C(=O)N(c1cc(C)c(=O)n(C)c1)C2c1ccc(Cl)cc1` (stereo not drawn) [Example 9, 6-(4-chlorophenyl)-5-(1,5-dimethyl-6-oxo-1,6-dihydropyridin-3-yl)-3-methyl-5,6-dihydropyrrolo[3,4-c]pyrazol-4(2H)-one], in the experiment with K-562 cells, the GI50 stood at 322 nM and the “K-562 TGI” value is more than 10000 nM. On BRD3 (His-Brd3(20-477)), this molecule gave a pIC50 of 7.17. Besides, in the experiment with THP-1 cells, the GI50 stood at 88.5 nM and the “THP-1 TGI” value was 206 nM. Besides, in the experiment on MV-4-11 cells, the GI50 was determined as 51 nM and the “MV-4-11 TGI” value was determined as 72.1 nM. For the same molecule, in experiment [1], the pIC50 was 5.52.
`COc1ncccc1-n1nc(C)c2c1C(c1ccc(Cl)cc1)N(c1cc(C)c(=O)n(C)c1)C2=O` (stereo not drawn) [Example 17a, 6-(4-chlorophenyl)-5-(1,5-dimethyl-6-oxo-1,6-dihydropyridin-3-yl)-1-(2-methoxypyridin-3-yl)-3-methyl-5,6-dihydropyrrolo[3,4-c]pyrazol-4(1H)-one]: in the experiment on K-562 cells, the GI50 was 293 nM and the “K-562 TGI” value was more than 10000 nM. This molecule also gave a pIC50 against BRD4-NUT-fusion of 7.25. Moreover, in the experiment with THP-1 cells, it took 102 nM to inhibit growth by half (GI50) and the “THP-1 TGI” value came out at 175 nM. Further, in the experiment with MV-4-11 cells, the GI50 worked out at 58.1 nM and the “MV-4-11 TGI” value was determined as 87.9 nM.
`CCOc1ncccc1-n1nc(C)c2c1C(c1ccc(Cl)cc1)N(c1cc(C)c(=O)n(C)c1)C2=O` (stereo not drawn) [Example 18a, 6-(4-chlorophenyl)-5-(1,5-dimethyl-6-oxo-1,6-dihydropyridin-3-yl)-1-(2-ethoxypyridin-3-yl)-3-methyl-5,6-dihydropyrrolo[3,4-c]pyrazol-4(1H)-one]: in the experiment on K-562 cells, the GI50 came out at 574 nM and the “K-562 TGI” value is more than 10000 nM. This molecule also had a pIC50 on BRD4-NUT-fusion of 7.18. In the experiment with THP-1 cells, the GI50 was determined as 89.6 nM and the “THP-1 TGI” value is 175 nM. In the experiment with MV-4-11 cells, the GI50 came to 89.3 nM and the “MV-4-11 TGI” value was found to be 101 nM.
For `Cc1cc(N2C(=O)c3c(C4CC4)n[nH]c3C2c2ccc(Cl)cc2)cn(C)c1=O` (stereo not drawn) [Example 23, 6-(4-chlorophenyl)-3-cyclopropyl-5-(1,5-dimethyl-6-oxo-1,6-dihydropyridin-3-yl)-5,6-dihydropyrrolo[3,4-c]pyrazol-4(1H)-one], the GI50 is 170 nM in the experiment on K-562 cells, 59.4 nM in the experiment with THP-1 cells and 25.6 nM in the experiment with MV-4-11 cells. For the same molecule, in the experiment on K-562 cells, the “K-562 TGI” value was more than 10000 nM. Also, the values for the pIC50 (on BRD2 (His-Brd2(60-472)); at BRD3 (His-Brd3(20-477)); in experiment [1]) were 7.28, 7.31 and 5.48, respectively. Further, in the experiment on THP-1 cells, the “THP-1 TGI” value came out at 128.5 nM. Further, the “MV-4-11 TGI” value with MV-4-11 cells amounted to 48 nM.
As for `Cc1[nH]nc2c1C(=O)N(c1cc(C)c(=O)n(C)c1)[C@@H]2c1ccc(Cl)cc1` [Example 27, (R)-6-(4-chlorophenyl)-5-(1,5-dimethyl-6-oxo-1,6-dihydropyridin-3-yl)-3-methyl-5,6-dihydropyrrolo[3,4-c]pyrazol-4(2H)-one], in the experiment with K-562 cells, growth was halved (GI50) at 112 nM and the “K-562 TGI” value is more than 10000 nM. In addition, the pIC50 on BRD3 (His-Brd3(20-477)) is 7.57. Also, in the experiment on THP-1 cells, growth was halved (GI50) at 56.2 nM and the “THP-1 TGI” value was found to be 115 nM. In addition, in the experiment on MV-4-11 cells, the GI50 was 27.1 nM and the “MV-4-11 TGI” value amounted to 49.6 nM. This molecule also showed a pIC50 in experiment [1] of 5.92.
